Reference: ChEMBL document CHEMBL1201862, “PubChem BioAssay data set” (2004)
Calls of active or inactive are those of the source.

Columns and labels:
[1] = system: HEK293; experiment: cells; conditions: Homo sapiens
[2] = Trypanosoma cruzi growth suppression in host cells – NIH3T3 host cells, beta-gal luminescence, confirmation (AID 2044); type: functional, cell-based;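 further: intracellular parasites grown in NIH/3T3 mouse fibroblasts as host cells; luminescent beta-galactosidase reporter signal from transgenic T. cruzi replicating inside host cells; inhibitors lower the luminescence signal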
[3] = reduced cellular PGC1a acetyl-lysine signal – cell-based, cherry-picked samples, dose response (AID 720514); type: functional;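 further: potency may reflect raised or lowered acetylation signal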
[4] = system: HEK293; experiment: cells; conditions: Homo sapiens; remark: listed apart in the source
[5] = NIH3T3 cell viability loss – ATP luminescence, mouse fibroblasts, counter-screen, dose response (AID 2010); type: functional, cell-based;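 further: cells exposed to compound for about 90 hours before reading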
[6] = target: T1, Heat shock factor protein 1 (Mus musculus, UniProt P38532); experiment: enhancement of HSF1-driven luciferase signal – cell-based, NIH3T3, luminescence, dose retest, confirmation (AID 435004); type: functional;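 further: stress induced by proteasome inhibitor MG132 added 30 min after compound; luciferase reporter driven by HSF1 response element in NIH3T3 cells; actives raise luminescence as potentiators of the MG132 stress response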
T1 sequence (P38532 whole entry): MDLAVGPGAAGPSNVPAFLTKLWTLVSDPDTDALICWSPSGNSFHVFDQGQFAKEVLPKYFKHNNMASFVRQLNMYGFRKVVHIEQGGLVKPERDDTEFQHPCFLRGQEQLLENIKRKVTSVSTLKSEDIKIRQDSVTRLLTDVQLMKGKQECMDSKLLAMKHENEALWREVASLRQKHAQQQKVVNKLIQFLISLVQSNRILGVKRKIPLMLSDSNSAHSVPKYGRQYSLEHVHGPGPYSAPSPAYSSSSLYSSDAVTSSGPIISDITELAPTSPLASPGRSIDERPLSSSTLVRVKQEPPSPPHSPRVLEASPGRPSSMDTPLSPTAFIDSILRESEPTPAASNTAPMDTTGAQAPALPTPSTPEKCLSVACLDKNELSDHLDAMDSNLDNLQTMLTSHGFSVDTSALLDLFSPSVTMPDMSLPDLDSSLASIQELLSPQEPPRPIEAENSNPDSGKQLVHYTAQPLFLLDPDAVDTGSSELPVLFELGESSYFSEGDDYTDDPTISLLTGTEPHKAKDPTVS

[7] = A Cell Based Secondary Assay To Explore Cytotoxicity of Compounds that Sensitize Mycobacterium Tuberculosis to Beta-Lactam Antibiotics.; type: functional
[8] = system: HeLa; experiment: ATP-based viability loss in HeLa cells – cell-based, CellTiter-Glo luminescence, cherry-pick samples, cytotoxicity control for MITF activator project, dose response (AID 540259); type: functional; conditions: Homo sapiens
[9] = target: Cytochrome P450 2D6 (Homo sapiens, UniProt P10635);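 further: CYP2D6 member of a cytochrome P450 panel assay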
[10] = target: T2, Lysine-specific demethylase 4C (Homo sapiens, UniProt Q9H3R0); experiment: inhibition of JMJD2C H3K9me3 demethylation – biochemical, DELFIA europium, cherry-picked samples, dose response (AID 488835); type: functional
T2 sequence (Q9H3R0 whole entry): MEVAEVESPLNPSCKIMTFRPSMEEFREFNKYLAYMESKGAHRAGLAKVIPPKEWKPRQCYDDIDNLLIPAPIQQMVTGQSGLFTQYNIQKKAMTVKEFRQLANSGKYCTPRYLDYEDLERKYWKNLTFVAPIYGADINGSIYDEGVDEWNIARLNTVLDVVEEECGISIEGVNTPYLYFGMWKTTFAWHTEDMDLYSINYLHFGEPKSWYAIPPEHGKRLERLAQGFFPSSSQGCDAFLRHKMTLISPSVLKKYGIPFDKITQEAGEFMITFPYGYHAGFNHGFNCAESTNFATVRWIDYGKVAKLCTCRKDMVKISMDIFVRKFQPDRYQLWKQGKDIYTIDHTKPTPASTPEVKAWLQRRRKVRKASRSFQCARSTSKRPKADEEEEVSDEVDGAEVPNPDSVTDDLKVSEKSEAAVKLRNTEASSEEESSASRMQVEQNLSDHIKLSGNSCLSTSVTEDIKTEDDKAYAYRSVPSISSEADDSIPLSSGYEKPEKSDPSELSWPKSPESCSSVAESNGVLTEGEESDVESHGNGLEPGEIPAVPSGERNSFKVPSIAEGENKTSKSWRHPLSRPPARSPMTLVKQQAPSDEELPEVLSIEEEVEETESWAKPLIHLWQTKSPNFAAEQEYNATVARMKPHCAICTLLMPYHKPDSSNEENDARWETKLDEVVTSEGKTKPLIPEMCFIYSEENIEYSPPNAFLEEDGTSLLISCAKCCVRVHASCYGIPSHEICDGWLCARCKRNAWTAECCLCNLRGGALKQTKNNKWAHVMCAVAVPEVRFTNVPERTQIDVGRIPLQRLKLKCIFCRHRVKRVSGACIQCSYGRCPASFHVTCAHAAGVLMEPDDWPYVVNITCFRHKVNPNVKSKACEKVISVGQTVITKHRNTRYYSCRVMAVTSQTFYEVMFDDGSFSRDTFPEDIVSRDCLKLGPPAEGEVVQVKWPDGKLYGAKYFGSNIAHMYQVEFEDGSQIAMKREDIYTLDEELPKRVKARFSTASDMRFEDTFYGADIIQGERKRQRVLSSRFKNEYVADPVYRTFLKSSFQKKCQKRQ

[11] = target: Lysine-specific demethylase 4A (Homo sapiens, UniProt O75164); experiment: inhibition of JMJD2A H3K9me3 demethylation – biochemical, DELFIA europium, cherry-picked samples, selectivity assay for GASC-1 inhibitor project, dose response (AID 488840)
[12] = Luminescence Cell-Based Dose Response HTS to Identify Activators of Luciferase Translation or Activity in H4 […] Cells. [Related pubchem assays: 1829 (Project Summary), 1814 (Primary HTS)]; type: functional
[13] = system: H4; experiment: Luminescence Cell-Based Dose Response HTS to Identify Activators of 5'UTR Stem-Loop Driven Prion Protein mRNA Translation in H4 Neuroglioblastoma Cells. [Related pubchem assays: 1829 (Project Summary), 1814 (Primary HTS)]; type: functional; conditions: Homo sapiens
[14] = system: A-375; experiment: proliferation inhibition in MITF-low A375 cells – cell-based, cherry-pick samples, set 2, counter-screen for MITF modulator project, dose response (AID 540335); type: functional; conditions: Homo sapiens
[15] = Luminescence Cell-Based Dose Retest to Confirm Inhibitors of Cancer Stem Cells. [Related pubchem assays (depositor defined):AID2717, AID2721]; type: functional; conditions: Homo sapiens
[16] = target: T3, Microphthalmia-associated transcription factor (Homo sapiens, UniProt O75030); experiment: reducers of TRPM1 reporter luminescence, concentration series – cell-based, SK-MEL-5, cherry-picked, set 3, MITF inhibitor project, dose response (AID 493073); type: functional;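 further: SK-MEL-5 melanoma cells with luciferase driven by the MITF target TRPM1 promoter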
T3 sequence (O75030 whole entry): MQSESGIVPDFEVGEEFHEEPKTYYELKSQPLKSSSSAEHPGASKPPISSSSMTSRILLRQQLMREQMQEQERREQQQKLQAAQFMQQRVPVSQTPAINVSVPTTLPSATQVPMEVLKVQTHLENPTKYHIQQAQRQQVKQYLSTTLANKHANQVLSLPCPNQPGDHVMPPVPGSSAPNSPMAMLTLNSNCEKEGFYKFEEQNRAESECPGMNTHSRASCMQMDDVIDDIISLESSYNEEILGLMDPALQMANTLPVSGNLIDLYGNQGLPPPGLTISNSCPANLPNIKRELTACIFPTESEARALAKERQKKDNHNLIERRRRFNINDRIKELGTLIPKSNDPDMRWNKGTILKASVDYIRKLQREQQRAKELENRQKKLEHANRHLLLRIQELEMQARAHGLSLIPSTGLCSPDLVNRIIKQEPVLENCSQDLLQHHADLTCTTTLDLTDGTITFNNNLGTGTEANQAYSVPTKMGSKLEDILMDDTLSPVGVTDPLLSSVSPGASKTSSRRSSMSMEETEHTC

[17] = system: INS1; experiment: INS-1E survival protection against cytokine death – cell-based, luminescence, retest, dose response (AID 449756); type: functional; conditions: Rattus norvegicus;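 further: cell death triggered by IL-1 beta plus TNF-alpha plus IFN-gamma mixture; protective hits raise ATP signal compared with cytokine alone wells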
[18] = target: T4, RNA-binding protein pos-1 (Caenorhabditis elegans, UniProt G5EF15); experiment: disruptors of C. elegans POS-1 RNA interaction – biochemical, fluorescence polarization, dose response (AID 1964);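 further: purified POS-1 fused to maltose binding protein made in E. coli; potency of compounds blocking POS-1 binding to fluorescent RNA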
T4 sequence (G5EF15 whole entry): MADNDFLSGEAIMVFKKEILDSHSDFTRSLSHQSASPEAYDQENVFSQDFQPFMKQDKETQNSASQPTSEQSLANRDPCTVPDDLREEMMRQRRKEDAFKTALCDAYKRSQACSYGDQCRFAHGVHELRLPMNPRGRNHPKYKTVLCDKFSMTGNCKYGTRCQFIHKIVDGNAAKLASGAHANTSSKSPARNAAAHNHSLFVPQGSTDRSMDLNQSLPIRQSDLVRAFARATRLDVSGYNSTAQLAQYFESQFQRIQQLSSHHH

[19] = target: T5, Zinc finger protein mex-5 (Caenorhabditis elegans, UniProt Q9XUB2); experiment: potency of MEX-5 RNA-binding blockers – biochemical, C. elegans, fluorescence polarization, dose response (AID 1960)
T5 sequence (Q9XUB2 whole entry): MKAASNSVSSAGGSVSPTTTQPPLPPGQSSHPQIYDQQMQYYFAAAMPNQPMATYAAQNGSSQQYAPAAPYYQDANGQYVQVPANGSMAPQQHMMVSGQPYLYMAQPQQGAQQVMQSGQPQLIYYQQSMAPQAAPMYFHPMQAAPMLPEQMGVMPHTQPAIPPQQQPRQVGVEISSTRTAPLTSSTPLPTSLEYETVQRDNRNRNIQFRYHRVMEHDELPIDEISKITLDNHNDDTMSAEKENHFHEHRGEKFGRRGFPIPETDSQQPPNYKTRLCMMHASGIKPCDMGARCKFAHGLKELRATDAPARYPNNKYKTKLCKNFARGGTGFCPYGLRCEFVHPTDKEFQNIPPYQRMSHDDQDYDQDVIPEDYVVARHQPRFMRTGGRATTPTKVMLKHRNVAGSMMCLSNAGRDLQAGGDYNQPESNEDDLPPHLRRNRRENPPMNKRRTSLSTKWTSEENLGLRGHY

[20] = target: Cytochrome P450 2C9 (Homo sapiens, UniProt P11712)
[21] = target: Cytochrome P450 2C19 (Homo sapiens, UniProt P33261); experiment: Cytochrome panel assay with activity outcomes. Panel member name: p450-cyp2c19 Compounds with AC50 equal or less than 10 uM are considered active; type: functional; conditions: read-out: AC50
[22] = target: T6, Leucine aminopeptidase (Plasmodium falciparum 3D7, UniProt Q8IL11); experiment: P. falciparum M17LAP inhibitors, primary screen, biochemical, fluorogenic H-Leu-NHMec substrate, 1536-well (AID 1619); type: functional
T6 sequence (Q8IL11 whole entry): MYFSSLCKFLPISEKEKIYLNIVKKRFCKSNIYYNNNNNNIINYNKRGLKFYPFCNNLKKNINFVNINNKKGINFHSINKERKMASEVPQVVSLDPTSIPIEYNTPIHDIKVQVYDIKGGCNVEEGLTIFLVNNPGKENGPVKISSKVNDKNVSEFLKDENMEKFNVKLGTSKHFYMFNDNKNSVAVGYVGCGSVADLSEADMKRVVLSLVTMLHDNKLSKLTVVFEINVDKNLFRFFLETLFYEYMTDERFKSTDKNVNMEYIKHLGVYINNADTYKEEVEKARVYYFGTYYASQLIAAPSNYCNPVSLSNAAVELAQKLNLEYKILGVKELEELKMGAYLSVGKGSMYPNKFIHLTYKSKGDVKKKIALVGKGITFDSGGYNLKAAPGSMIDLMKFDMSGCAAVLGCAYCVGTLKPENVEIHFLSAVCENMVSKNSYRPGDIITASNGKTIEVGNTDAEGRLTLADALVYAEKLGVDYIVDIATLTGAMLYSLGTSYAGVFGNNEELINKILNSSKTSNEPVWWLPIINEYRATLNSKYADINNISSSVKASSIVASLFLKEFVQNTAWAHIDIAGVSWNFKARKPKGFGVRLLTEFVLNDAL

[23] = system: HEK293; experiment: HEK293T cell viability loss, resazurin readout – resazurin fluorescence, cytotoxicity control for NF-kB activator project, SAR follow-up (AID 493251); type: functional, cell-based; conditions: Homo sapiens
[24] = system: HEK293; experiment: SAR Analysis of small molecule inhibitors of T-cell specific antigen receptor-induced NF-kB activation in a HEK-293T cell line using a luminescence assay - Set 2. [Related pubchem assays (depositor defined):AID435003, AID435012, AID489026]; type: functional, cell-based; conditions: Homo sapiens
[25] = system: Jurkat; experiment: SAR Analysis of small molecule inhibitors of T-cell specific antigen receptor-induced NF-kB activation in a Jurkat cell line using a luminescence assay - Set 2. [Related pubchem assays (depositor defined):AID435003, AID435012, AID465]; type: functional, cell-based; conditions: Homo sapiens
[26] = HEK-293T viability loss, compound-treated – cell-based, uHTS hits, cytotoxicity control for B/T-cell NF-kB inhibitor project, dose response (AID 489019); type: functional;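 further: IC50 reflects cytotoxicity as loss of cell viability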
[27] = system: Jurkat; experiment: blockers of NF-kB activation in T cells – Jurkat, luciferase reporter, luminescence, B- and T-cell, dose response (AID 489004); type: functional, cell-based; conditions: Homo sapiens;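 further: NF-kB luciferase reporter Jurkat cells stimulated with PMA plus ionomycin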

Cytochrome P450 2D6, sequence (P10635 whole entry): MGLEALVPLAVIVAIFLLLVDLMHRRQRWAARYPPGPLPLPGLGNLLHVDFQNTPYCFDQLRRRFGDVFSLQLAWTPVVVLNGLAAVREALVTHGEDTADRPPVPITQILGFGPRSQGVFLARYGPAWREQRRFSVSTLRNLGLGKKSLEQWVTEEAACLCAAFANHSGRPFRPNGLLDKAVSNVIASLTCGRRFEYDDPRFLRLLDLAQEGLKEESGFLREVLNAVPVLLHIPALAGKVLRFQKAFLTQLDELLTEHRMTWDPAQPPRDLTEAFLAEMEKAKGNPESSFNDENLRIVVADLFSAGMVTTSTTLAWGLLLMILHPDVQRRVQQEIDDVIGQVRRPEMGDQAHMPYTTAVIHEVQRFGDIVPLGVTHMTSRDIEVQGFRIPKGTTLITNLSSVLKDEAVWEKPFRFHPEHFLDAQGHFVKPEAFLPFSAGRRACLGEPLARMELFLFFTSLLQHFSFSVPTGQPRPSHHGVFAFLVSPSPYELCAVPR
Lysine-specific demethylase 4A, sequence (O75164 whole entry): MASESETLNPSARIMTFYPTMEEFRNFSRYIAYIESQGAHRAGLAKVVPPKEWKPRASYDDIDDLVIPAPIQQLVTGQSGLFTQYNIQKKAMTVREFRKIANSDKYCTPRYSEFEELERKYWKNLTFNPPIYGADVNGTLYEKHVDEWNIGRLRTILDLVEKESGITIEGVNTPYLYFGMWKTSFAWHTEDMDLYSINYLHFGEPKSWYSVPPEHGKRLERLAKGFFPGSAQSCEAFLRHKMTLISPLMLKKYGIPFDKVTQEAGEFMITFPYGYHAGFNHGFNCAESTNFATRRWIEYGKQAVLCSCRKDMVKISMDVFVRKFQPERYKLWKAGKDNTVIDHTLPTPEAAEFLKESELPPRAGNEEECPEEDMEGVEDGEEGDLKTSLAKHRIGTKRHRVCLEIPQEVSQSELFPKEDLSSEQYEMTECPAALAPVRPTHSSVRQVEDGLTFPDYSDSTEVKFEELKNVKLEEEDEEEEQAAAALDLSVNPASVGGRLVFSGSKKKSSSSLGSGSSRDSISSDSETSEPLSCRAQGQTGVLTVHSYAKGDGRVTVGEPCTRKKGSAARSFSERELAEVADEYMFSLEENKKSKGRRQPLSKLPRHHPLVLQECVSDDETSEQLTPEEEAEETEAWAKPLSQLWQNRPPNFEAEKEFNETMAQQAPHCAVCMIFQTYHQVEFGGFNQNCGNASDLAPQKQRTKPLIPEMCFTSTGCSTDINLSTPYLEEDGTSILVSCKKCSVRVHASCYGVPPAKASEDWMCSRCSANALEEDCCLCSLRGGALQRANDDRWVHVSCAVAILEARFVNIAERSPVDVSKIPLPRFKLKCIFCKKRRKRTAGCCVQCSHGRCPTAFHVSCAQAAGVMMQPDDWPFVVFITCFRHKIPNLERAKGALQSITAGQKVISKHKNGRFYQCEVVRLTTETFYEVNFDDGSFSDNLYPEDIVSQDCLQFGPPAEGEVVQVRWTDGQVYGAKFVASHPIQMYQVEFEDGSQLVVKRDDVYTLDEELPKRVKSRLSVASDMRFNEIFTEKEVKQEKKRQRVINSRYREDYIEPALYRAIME
Cytochrome P450 2C19, sequence (P33261 whole entry): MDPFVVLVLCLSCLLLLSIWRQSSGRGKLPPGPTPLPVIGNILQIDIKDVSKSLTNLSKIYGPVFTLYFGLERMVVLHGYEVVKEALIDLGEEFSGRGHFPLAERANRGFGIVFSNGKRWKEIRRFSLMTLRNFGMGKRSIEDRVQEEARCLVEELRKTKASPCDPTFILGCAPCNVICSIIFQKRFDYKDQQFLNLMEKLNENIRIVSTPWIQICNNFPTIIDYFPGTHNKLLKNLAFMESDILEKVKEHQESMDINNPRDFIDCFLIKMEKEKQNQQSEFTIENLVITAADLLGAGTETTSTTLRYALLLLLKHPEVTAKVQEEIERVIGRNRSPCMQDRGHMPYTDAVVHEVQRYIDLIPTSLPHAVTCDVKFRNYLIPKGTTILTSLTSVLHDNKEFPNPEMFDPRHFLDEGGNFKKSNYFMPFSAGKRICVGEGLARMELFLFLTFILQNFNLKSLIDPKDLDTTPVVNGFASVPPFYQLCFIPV
Cytochrome P450 2C9, sequence (P11712 whole entry): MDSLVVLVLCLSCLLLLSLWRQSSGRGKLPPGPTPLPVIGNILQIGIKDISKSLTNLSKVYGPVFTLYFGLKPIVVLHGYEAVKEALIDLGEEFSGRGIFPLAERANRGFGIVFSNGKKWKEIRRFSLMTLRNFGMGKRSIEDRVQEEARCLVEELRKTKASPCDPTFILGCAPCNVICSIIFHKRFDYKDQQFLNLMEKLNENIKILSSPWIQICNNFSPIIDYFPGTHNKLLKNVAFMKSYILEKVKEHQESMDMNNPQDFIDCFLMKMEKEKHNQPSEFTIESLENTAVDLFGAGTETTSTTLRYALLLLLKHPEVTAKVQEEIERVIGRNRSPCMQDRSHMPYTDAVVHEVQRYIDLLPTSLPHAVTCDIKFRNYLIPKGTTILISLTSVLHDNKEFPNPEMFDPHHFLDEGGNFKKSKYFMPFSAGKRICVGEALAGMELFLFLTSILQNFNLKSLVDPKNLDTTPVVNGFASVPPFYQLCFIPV

N#Cc1cc(Oc2cccc3cccnc23)c(-n2nnc3ccccc32)cc1C#N
EC50 [1]: > 59.6 µM (inactive)
EC50 [2]: 2.25 µM (active)
AC50 [3]: 2.77 µM (active)
EC50 [4]: > 59.6 µM (inactive)
EC50 [5]: 22.6 µM (active)
EC50 [6]: > 260 µM (inactive)
CC50 [7]: > 40 µM (active)

O=C(CNC(=O)c1cccs1)c1ccc(Br)cc1
AC50 [8]: 59.4 µM (active)

O=C1OC(=O)[C@@H]2[C@@H]1[C@@H]1CC[C@H]2O1
AC50 [9]: inconclusive

CC(C)Oc1ccc(Cc2c(O)nc(O)nc2O)cc1
AC50 [10]: 2.86 µM (active)
AC50 [11]: 17.5 µM (active)

C=CCn1c(C)cc(C(=O)CN2NS(=O)(=O)c3ccccc3C2=O)c1C
EC50 [1]: > 2.21 µM (active)
EC50 [4]: > 59.6 µM (inactive)

Cc1ccc(Sc2cnc3ccccc3n2)cc1
EC50 [12]: 3.64 µM (active)
EC50 [13]: 10.1 µM (active)
AC50 [8]: 44.3 µM (active)

Cc1ccc(C)c(NC(=O)/C(C#N)=C/c2cn(CC(=O)NCc3ccco3)c3ccccc23)c1
AC50 [14]: 33.9 µM (active)
AC50 [15]: 57.8 µM (active)
AC50 [16]: 6.56 µM (active)
AC50 [17]: 3.67 µM (active)

Cn1c(=O)c2[nH]c(N=NNc3ccccc3F)nc2n(C)c1=O
AC50 [10]: 8.83 µM (active)
AC50 [11]: 17.3 µM (active)
EC50 [18]: 62 µM (active)
EC50 [19]: 21.7 µM (active)

Cc1ccc(NC(=O)c2cc(NC(=O)CCC(=O)O)ccc2N2CCCCC2)cc1
AC50 [20]: 14.1 µM (inconclusive)
AC50 [9]: inconclusive
AC50 [21]: 35.5 µM (inconclusive)
IC50 [22]: 11.8 µM (active)

Cc1ccc(NC(=O)c2ccc([N+](=O)[O-])o2)cc1C(F)(F)F
IC50 [23]: 60 µM (inactive)
IC50 [24]: 68.5 µM (inactive)
IC50 [25]: 0.45 µM (active)

CCCCCCCCn1ccc(=N)cc1
IC50 [26]: > 80 µM (inactive)
AC50 [17]: 0.585 µM (active)
IC50 [27]: > 80 µM (inactive)
